We go through 17 compounds from ChEMBL document CHEMBL3991601, “The target landscape of clinical kinase drugs” (Science, 2017).

Molecules are shown by their SMILES. Active and inactive are the calls of the source. Rule as the data show it, for most assays here: actives have a measured Kd and inactives only a lower limit.

What is called Kd is the concentration at which binding is half-saturated.

The target of one experiment is T1, Activin receptor type-1 (Homo sapiens, UniProt Q04771).
T1 sequence (Q04771 whole entry): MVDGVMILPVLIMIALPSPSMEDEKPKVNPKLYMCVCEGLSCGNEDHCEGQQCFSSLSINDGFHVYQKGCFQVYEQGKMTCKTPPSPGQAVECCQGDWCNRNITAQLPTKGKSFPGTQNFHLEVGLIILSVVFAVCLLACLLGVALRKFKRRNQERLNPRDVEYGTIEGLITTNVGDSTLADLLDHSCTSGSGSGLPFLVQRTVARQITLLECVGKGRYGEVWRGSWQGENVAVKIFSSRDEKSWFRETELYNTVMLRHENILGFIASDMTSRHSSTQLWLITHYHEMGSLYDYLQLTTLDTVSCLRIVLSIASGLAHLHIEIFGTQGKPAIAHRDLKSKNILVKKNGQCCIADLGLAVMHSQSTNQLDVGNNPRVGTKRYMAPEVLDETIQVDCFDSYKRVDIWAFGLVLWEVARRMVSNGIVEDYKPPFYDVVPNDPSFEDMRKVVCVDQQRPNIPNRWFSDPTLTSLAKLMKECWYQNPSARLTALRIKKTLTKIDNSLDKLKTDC

The target of the next experiment is T2, Glycine--tRNA ligase (Homo sapiens, UniProt P41250).
T2 sequence (P41250 whole entry): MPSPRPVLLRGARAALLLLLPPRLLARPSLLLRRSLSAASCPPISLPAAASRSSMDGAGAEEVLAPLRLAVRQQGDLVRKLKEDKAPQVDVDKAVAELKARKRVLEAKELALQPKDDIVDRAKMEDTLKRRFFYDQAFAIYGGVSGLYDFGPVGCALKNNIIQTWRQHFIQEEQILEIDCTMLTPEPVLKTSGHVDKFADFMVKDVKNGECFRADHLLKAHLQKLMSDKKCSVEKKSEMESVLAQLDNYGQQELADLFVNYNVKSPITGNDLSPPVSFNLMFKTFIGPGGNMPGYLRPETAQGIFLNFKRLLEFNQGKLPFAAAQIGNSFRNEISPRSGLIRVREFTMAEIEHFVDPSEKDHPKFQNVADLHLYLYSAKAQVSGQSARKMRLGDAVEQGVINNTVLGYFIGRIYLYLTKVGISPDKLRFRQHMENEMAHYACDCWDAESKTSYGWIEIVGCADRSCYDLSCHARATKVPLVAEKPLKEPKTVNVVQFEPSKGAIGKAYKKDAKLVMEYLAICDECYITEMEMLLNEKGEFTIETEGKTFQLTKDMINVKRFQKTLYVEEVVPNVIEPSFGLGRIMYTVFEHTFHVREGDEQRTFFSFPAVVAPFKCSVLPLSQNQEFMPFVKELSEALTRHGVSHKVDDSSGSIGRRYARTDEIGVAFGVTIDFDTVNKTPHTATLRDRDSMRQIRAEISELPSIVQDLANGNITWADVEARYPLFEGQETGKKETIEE

Experiment [1] addresses T3, Interleukin-1 receptor-associated kinase 3 (Homo sapiens, UniProt Q9Y616).
T3 sequence (Q9Y616 whole entry): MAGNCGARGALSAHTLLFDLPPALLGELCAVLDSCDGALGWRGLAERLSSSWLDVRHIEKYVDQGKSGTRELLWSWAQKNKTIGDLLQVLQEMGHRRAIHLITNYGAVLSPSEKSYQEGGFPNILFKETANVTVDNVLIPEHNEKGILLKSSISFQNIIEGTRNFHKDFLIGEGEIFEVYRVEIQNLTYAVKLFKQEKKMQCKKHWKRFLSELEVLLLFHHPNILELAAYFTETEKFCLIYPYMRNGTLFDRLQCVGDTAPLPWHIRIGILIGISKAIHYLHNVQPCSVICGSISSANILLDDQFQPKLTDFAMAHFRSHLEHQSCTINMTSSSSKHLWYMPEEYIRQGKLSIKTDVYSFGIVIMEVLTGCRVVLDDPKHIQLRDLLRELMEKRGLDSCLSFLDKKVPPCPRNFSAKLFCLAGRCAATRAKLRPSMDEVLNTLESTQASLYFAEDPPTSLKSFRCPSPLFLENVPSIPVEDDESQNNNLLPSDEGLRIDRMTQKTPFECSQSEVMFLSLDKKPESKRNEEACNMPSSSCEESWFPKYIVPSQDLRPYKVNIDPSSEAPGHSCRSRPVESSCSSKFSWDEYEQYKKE

Experiment [2] concerns the target Dual specificity mitogen-activated protein kinase kinase 1 (Homo sapiens, UniProt Q02750).
Experiment [3] concerns the target Mitogen-activated protein kinase kinase kinase kinase 1 (Homo sapiens, UniProt Q92918).
In experiment [4] the target is S-adenosylmethionine synthase isoform type-2 (Homo sapiens, UniProt P31153).
The target in experiment [5] is Rho-associated protein kinase 1 (Homo sapiens, UniProt Q13464).
Also: in the data inactive means no Kd found up to 30 µM.

Mitogen-activated protein kinase kinase kinase kinase 1, sequence (Q92918 whole entry, canonical isoform): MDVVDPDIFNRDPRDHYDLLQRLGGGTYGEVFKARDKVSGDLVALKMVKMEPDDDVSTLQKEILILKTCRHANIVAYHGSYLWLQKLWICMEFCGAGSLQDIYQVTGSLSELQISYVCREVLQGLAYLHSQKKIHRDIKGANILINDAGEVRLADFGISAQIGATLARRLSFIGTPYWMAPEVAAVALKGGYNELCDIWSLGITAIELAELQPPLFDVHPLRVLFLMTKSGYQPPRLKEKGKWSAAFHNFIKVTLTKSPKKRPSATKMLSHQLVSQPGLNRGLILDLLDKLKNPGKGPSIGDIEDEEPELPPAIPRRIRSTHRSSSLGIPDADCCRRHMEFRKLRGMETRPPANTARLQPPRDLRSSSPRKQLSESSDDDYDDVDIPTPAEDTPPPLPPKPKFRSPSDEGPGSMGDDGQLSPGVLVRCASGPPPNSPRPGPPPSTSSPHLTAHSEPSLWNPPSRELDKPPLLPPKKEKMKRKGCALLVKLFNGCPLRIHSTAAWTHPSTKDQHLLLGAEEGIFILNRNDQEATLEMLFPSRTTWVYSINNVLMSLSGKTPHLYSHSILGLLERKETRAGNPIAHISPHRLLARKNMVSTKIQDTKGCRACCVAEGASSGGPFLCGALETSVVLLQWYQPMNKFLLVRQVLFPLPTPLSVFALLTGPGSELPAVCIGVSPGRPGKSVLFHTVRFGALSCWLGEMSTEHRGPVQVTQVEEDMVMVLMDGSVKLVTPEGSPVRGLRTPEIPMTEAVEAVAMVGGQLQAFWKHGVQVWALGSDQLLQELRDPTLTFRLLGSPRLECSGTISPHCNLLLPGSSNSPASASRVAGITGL
Rho-associated protein kinase 1, sequence (Q13464 whole entry): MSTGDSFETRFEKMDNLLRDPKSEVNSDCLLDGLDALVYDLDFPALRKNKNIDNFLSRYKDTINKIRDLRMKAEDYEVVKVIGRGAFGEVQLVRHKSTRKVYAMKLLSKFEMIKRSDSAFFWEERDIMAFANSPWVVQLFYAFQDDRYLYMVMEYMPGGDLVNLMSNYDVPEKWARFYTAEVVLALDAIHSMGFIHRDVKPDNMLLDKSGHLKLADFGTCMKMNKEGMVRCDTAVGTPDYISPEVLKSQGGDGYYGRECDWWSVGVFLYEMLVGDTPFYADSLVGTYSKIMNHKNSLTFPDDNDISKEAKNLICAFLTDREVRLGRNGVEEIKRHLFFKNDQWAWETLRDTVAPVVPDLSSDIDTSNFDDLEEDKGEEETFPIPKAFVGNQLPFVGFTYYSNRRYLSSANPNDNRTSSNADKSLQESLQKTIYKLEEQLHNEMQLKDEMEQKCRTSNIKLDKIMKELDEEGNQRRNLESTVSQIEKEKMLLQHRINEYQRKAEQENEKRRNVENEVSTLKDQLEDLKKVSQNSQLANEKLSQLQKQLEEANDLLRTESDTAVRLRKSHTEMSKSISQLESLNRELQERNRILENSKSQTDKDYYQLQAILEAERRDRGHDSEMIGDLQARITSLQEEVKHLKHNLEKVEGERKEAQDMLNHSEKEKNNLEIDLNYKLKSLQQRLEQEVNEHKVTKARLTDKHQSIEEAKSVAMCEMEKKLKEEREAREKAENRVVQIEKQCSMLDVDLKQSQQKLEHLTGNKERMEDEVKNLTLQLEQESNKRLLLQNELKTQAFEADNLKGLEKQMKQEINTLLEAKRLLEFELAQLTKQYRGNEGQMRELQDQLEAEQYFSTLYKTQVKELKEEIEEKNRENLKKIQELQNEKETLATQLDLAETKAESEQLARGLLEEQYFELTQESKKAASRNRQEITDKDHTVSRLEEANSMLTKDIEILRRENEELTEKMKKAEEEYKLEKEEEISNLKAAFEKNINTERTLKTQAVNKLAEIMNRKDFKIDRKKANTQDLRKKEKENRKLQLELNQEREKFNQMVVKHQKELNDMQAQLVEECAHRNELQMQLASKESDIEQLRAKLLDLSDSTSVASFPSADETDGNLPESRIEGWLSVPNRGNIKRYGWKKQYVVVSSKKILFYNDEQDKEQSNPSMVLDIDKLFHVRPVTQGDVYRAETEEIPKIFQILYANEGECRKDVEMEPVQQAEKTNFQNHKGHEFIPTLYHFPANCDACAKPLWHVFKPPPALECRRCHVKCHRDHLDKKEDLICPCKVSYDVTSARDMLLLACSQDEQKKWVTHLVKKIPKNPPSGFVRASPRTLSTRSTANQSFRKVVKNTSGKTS
Dual specificity mitogen-activated protein kinase kinase 1, sequence (Q02750 whole entry): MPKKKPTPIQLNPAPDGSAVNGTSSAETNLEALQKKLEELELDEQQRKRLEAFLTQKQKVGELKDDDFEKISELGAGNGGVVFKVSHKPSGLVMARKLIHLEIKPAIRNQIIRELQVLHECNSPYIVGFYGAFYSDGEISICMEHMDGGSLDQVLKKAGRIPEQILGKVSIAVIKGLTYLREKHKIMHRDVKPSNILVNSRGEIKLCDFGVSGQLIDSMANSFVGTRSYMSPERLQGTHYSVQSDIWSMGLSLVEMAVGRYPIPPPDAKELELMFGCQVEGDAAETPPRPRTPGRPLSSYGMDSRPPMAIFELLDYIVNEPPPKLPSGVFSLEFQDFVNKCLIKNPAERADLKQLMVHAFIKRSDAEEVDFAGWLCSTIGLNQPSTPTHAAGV
S-adenosylmethionine synthase isoform type-2, sequence (P31153 whole entry, canonical isoform): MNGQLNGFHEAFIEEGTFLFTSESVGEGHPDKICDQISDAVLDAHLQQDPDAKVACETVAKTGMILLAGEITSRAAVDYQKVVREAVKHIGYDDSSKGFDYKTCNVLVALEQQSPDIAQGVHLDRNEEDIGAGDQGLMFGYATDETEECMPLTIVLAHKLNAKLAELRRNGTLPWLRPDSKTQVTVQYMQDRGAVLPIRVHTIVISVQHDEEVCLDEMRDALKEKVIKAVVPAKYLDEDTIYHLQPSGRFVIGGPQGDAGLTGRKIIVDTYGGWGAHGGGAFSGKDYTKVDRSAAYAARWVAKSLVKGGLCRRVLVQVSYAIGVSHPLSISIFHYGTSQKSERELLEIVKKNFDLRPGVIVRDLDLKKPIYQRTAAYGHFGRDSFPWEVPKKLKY

As for `C[C@@H](Oc1cc(C(=O)Nc2ccc(C(=O)N3CCN(C)CC3)cc2)nnc1N)c1c(Cl)ccc(F)c1Cl`, the Kd (at Activin receptor type-1; at Glycine--tRNA ligase; in experiment [1]; in experiment [2]; in experiment [3]; in experiment [4]) was > 30 µM (inactive) throughout. Further, the Kd in experiment [5] was > 30 µM (inactive).

As for `CC(=O)c1cnc2ccc(-c3cc(Cl)c(O)c(Cl)c3)nc2c1N[C@H]1CC[C@H](CN(C)C)CC1`, the Kd on Activin receptor type-1 is 0.222 µM (active); at Glycine--tRNA ligase, > 30 µM (inactive); in experiment [1], 0.012 µM (active); in experiment [2], 0.968 µM (active); in experiment [3], > 30 µM (inactive); in experiment [4] it was > 30 µM (inactive). The Kd in experiment [5] is > 30 µM (inactive).

Consider `C=CC(=O)N1CCC[C@H](n2c(=O)n(-c3ccc(Oc4ccccc4)cc3)c3c(N)ncnc32)C1`, for which the Kd (on Activin receptor type-1; at Glycine--tRNA ligase; in experiment [1]; in experiment [2]; in experiment [3]; in experiment [4]) was > 30 µM (inactive) throughout. In addition, in experiment [5], the Kd is > 30 µM (inactive).

For `Cc1nc2cc(-c3nn(C(C)C)c4ncnc(N)c34)ccc2o1`, the Kd at Activin receptor type-1 is 0.04 µM (active); on Glycine--tRNA ligase, > 30 µM (inactive); in experiment [1], > 30 µM (inactive); in experiment [2] it was 3.01 µM (active); in experiment [3] it was > 30 µM (inactive); in experiment [4], > 30 µM (inactive). The Kd in experiment [5] is > 30 µM (inactive).

Turning to `COCc1c(-c2ccc(NC(=O)Nc3cc(C(F)(F)F)ccc3F)c(F)c2)c2c(N)ncnn2c1CN1CCOCC1`, the Kd (at Activin receptor type-1; on Glycine--tRNA ligase; in experiment [1]; in experiment [2]; in experiment [3]; in experiment [4]) was > 30 µM (inactive) in each case. Also, the Kd in experiment [5] was > 30 µM (inactive).

For the compound `Cc1nc(NC(=O)N2CCC[C@H]2C(N)=O)sc1-c1ccnc(C(C)(C)C(F)(F)F)c1` [ALPELISIB], the Kd (on Activin receptor type-1; on Glycine--tRNA ligase; in experiment [1]; in experiment [2]; in experiment [4]; in experiment [5]) was > 30 µM (inactive) in each case.

For the compound `Cc1csc(-c2nnc(Nc3ccc(Oc4ncccc4-c4ccnc(N)n4)cc3)c3ccccc23)c1` [AMG-900], the Kd on Activin receptor type-1 was > 30 µM (inactive); at Glycine--tRNA ligase, > 30 µM (inactive); in experiment [1], > 30 µM (inactive); in experiment [2], 3.31 µM (active); in experiment [3], > 30 µM (inactive); in experiment [5], > 30 µM (inactive).

As for `O=C(Nc1c[nH]nc1-c1nc2cc(CN3CCOCC3)ccc2[nH]1)NC1CC1` [AT-9283], the Kd is 0.078 µM (active) at Activin receptor type-1; > 30 µM (inactive) on Glycine--tRNA ligase; > 30 µM (inactive) in experiment [1]; > 30 µM (inactive) in experiment [2]; 0.214 µM (active) in experiment [3]; > 30 µM (inactive) in experiment [4]. Further, in experiment [5], the Kd was > 30 µM (inactive).

`C=CC(=O)Nc1cc2c(Nc3ccc(F)c(Cl)c3)ncnc2cc1C#CC(C)(C)N1CCN(C)CC1` [AV-412 FREE BASE]: the Kd (at Activin receptor type-1; on Glycine--tRNA ligase; in experiment [1]; in experiment [2]; in experiment [3]; in experiment [4]) was > 30 µM (inactive) each time. For the same compound, the Kd in experiment [5] is > 30 µM (inactive).

As to `COc1cc([C@@H]2c3cc4c(cc3[C@H](O)[C@H]3COC(=O)[C@@H]23)OCO4)cc(OC)c1OC` [AXL-1717], the Kd (on Activin receptor type-1; at Glycine--tRNA ligase; in experiment [1]; in experiment [2]; in experiment [3]; in experiment [4]) was > 30 µM (inactive) each time. The Kd in experiment [5] is > 30 µM (inactive).

On to `Cn1cnc2c(F)c(Nc3ccc(Br)cc3F)c(C(=O)NOCCO)cc21` [BINIMETINIB], for which the Kd is > 30 µM (inactive) on Activin receptor type-1; > 30 µM (inactive) on Glycine--tRNA ligase; > 30 µM (inactive) in experiment [1]; 0.045 µM (active) in experiment [2]; > 30 µM (inactive) in experiment [3]; > 30 µM (inactive) in experiment [4]. For the same compound, the Kd in experiment [5] is > 30 µM (inactive).

For `CCn1c(C(=O)N(C2CC2)C2CC2)cc2c3c(ncn3C)c(Nc3cc(C)n(C)n3)nc21` [BMS-911543], the Kd (at Activin receptor type-1; on Glycine--tRNA ligase; in experiment [1]; in experiment [2]; in experiment [3]; in experiment [4]) was > 30 µM (inactive) in each case. The Kd in experiment [5] is > 30 µM (inactive).

For `COc1cc2ncnc(Oc3cccc(NC(=O)Nc4cc(C(C)(C)C(F)(F)F)on4)c3)c2cc1OC` [CEP-32496], the Kd (at Activin receptor type-1; on Glycine--tRNA ligase; in experiment [1]; in experiment [2]; in experiment [3]; in experiment [4]) was > 30 µM (inactive) each time. For the same compound, the Kd in experiment [5] was > 30 µM (inactive).

For the compound `Cc1cc(Nc2ncc(Cl)c(Nc3ccccc3S(=O)(=O)C(C)C)n2)c(OC(C)C)cc1C1CCNCC1` [CERITINIB], the Kd (at Activin receptor type-1; on Glycine--tRNA ligase; in experiment [1]; in experiment [2]; in experiment [3]; in experiment [4]) was > 30 µM (inactive) throughout. Also, the Kd in experiment [5] was > 30 µM (inactive).

Consider `FC(F)(F)c1ccc(/C=C/c2nc(COc3ccc(CCCCn4ccnn4)cc3)co2)cc1` [MUBRITINIB], for which the Kd (at Activin receptor type-1; at Glycine--tRNA ligase; in experiment [1]; in experiment [2]; in experiment [3]; in experiment [5]) was > 30 µM (inactive) in each case.

For `CNC(=O)c1cc(Oc2ccc(NC(=O)Nc3cc(C(C)(C)C)nn3-c3ccc4ncccc4c3)c(F)c2)ccn1` [REBASTINIB], the Kd is > 30 µM (inactive) at Activin receptor type-1; > 30 µM (inactive) at Glycine--tRNA ligase; > 30 µM (inactive) in experiment [1]; > 30 µM (inactive) in experiment [2]; 0.566 µM (active) in experiment [3]; > 30 µM (inactive) in experiment [5].

Consider `CO[C@H]1C[C@@H]2CC[C@@H](C)[C@@](O)(O2)C(=O)C(=O)N2CCCC[C@H]2C(=O)O[C@H]([C@H](C)C[C@@H]2CC[C@@H](OP(C)(C)=O)[C@H](OC)C2)CC(=O)[C@H](C)/C=C(\C)[C@@H](O)[C@@H](OC)C(=O)[C@H](C)C[C@H](C)/C=C/C=C/C=C/1C` [RIDAFOROLIMUS], for which the Kd (on Activin receptor type-1; at Glycine--tRNA ligase; in experiment [1]; in experiment [2]; in experiment [3]; in experiment [5]) was > 30 µM (inactive) in each case.
